Like-named read-outs stand apart in the source and are kept apart here.
Key:
Assay type in all cases: in vivo
[1] = system: blackgrass (Alopecurus myosuroides); assay: Test B postemergence; conditions: Alopecurus myosuroides, post-emergence
Procedure, shortened: (§1)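 Visual rating, 0 (no effect) to 100 (complete control) versus controls, taken 13–15 days after treatment in greenhouse. Compounds formulated in non-phytotoxic solvent plus surfactant; pre: sprayed after seeding; post: plants at 1- to 4-leaf stage, 2–18 cm.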

[2] = system: wild oat (Avena fatua); assay: Test B postemergence; conditions: Avena fatua, post-emergence
Procedure, shortened: as §1

[3] = system: umbrella sedge (Cyperus difformis); assay: Test B flooded paddy test; conditions: Cyperus difformis, Flood, 1000 g ai/ha; scale 0 to 100; read-out: Plant response rating, Sedge, Umbrella
Procedure, shortened: (§2)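 Rice, umbrella sedge, duck salad and barnyardgrass grown to 2-leaf stage under flooded paddy conditions and treated with formulated test chemicals. Kept in greenhouse 13–15 days, then visually rated against untreated controls on a 0–100 scale (0 no effect, 100 complete control).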

[4] = system: duck salad (Heteranthera limosa); assay: Test B flooded paddy test; conditions: Heteranthera limosa, Flood, 1000 g ai/ha; scale 0 to 100; read-out: Plant response rating, Ducksalad
Procedure, shortened: as §2

[5] = system: barnyardgrass (Echinochloa crus-galli); assay: Test B flooded paddy test; conditions: Echinochloa crus-galli, Flood, 1000 g ai/ha; scale 0 (no effect) to 100 (complete control); read-out: Plant response rating, Barnyardgrass
Procedure, shortened: as §2

[6] = system: rice (Oryza sativa); assay: Test B flooded paddy test; conditions: Oryza sativa, Flood, 1000 g ai/ha; scale 0 to 100; read-out: Plant response rating, Rice
Procedure, shortened: as §2

[7] = system: giant foxtail (Setaria faberii); assay: Test B pre/postemergence; conditions: Setaria faberi; for pest or weed control at 125 g/ha: 125 g ai/ha; for pest or weed control at 500 g/ha: 500 g ai/ha
Procedure, shortened: as §1

[8] = system: pigweed (Amaranthus retroflexus); assay: Test B pre/postemergence; conditions: Amaranthus retroflexus; for pest or weed control at 125 g/ha: 125 g ai/ha; for pest or weed control at 500 g/ha: 500 g ai/ha
Procedure, shortened: as §1

[9] = system: cocklebur (Xanthium strumarium); assay: Test B pre/postemergence; conditions: Xanthium strumarium; for pest or weed control at 125 g/ha: 125 g ai/ha; for pest or weed control at 500 g/ha: 500 g ai/ha
Procedure, shortened: as §1

[10] = system: morningglory (Ipomoea coccinea); assay: Test B pre/postemergence; conditions: Ipomoea; for pest or weed control at 125 g/ha: 125 g ai/ha; for pest or weed control at 500 g/ha: 500 g ai/ha
Procedure, shortened: as §1

[11] = system: wheat (Triticum aestivum); assay: Test B pre/postemergence; conditions: Triticum aestivum; for plant injury at 125 g/ha: 125 g ai/ha; for plant injury at 500 g/ha: 500 g ai/ha
Procedure, shortened: as §1

[12] = system: crabgrass (Digitaria sanguinalis); assay: Test B pre/postemergence; conditions: Digitaria sanguinalis; for pest or weed control at 125 g/ha: 125 g ai/ha; for pest or weed control at 500 g/ha: 500 g ai/ha
Procedure, shortened: as §1

[13] = system: corn (Zea mays); assay: Test B pre/postemergence; conditions: Zea mays
Procedure, shortened: as §1

[14] = system: lambsquarters (Chenopodium album); assay: Test B pre/postemergence; conditions: Chenopodium album; for pest or weed control at 125 g/ha: 125 g ai/ha; for pest or weed control at 500 g/ha: 500 g ai/ha
Procedure, shortened: as §1

[15] = system: velvetleaf (Abutilon theophrasti); assay: Test B pre/postemergence; conditions: Abutilon theophrasti; for pest or weed control at 125 g/ha: 125 g ai/ha; for pest or weed control at 500 g/ha: 500 g ai/ha
Procedure, shortened: as §1

[16] = system: barnyardgrass (Echinochloa crus-galli); assay: Test B pre/postemergence; conditions: Echinochloa crus-galli; for pest or weed control at 125 g/ha: 125 g ai/ha; for pest or weed control at 500 g/ha: 500 g ai/ha
Procedure, shortened: as §1

[17] = system: Surinam grass (Brachiaria decumbens); assay: Test B pre/postemergence; conditions: Urochloa decumbens; for pest or weed control at 125 g/ha: 125 g ai/ha; for pest or weed control at 500 g/ha: 500 g ai/ha
Procedure, shortened: as §1

COC(=O)c1nc(C2CC2)nc(N)c1Cl [Compound 9, methyl 6-amino-5-chloro-2-cyclopropyl-4-pyrimidinecarboxylate]
90%: pest or weed control at 1000 g/ha [3] | pest or weed control at 1000 g/ha [5] | pest or weed control at 125 g/ha ([7]; post-emergence, Postemergence, scale 0 to 100 (0 no effect, 100 complete control), read-out: Foxtail, Giant plant response rating) | pest or weed control at 500 g/ha ([7]; post-emergence, Postemergence, scale 0 to 100, read-out: Plant response rating, Foxtail, Giant) | pest or weed control at 125 g/ha ([8]; pre-emergence, Preemergence, scale 0 to 100 (0 no effect, 100 complete control), read-out: Plant response rating, Pigweed) | pest or weed control at 125 g/ha ([9]; pre-emergence, Preemergence, scale 0 to 100 (0 no effect, 100 complete control), read-out: Plant response rating, Cocklebur) | pest or weed control at 125 g/ha ([12]; post-emergence, Postemergence, scale 0 to 100 (0 no effect, 100 complete control), read-out: Crabgrass plant response rating) | pest or weed control at 500 g/ha ([12]; post-emergence, Postemergence, scale 0 to 100, read-out: Plant response rating, Crabgrass) | pest or weed control at 125 g/ha ([12]; pre-emergence, Preemergence, scale 0 to 100 (0 no effect, 100 complete control), read-out: Plant response rating, Crabgrass) | Corn plant response rating (crop injury, 0 = no effect, 100 = complete kill) at 500 g/ha ([13]; post-emergence, Postemergence, 500 g ai/ha, scale 0 to 100) | pest or weed control at 125 g/ha ([14]; post-emergence, Postemergence, scale 0 to 100 (0 no effect, 100 complete control), read-out: Lambsquarters plant response rating) | pest or weed control at 125 g/ha ([14]; pre-emergence, Preemergence, scale 0 to 100 (0 no effect, 100 complete control), read-out: Plant response rating, Lambsquarters) | pest or weed control at 125 g/ha ([15]; pre-emergence, Preemergence, scale 0 to 100 (0 no effect, 100 complete control), read-out: Plant response rating, Velvetleaf) | pest or weed control at 125 g/ha ([16]; post-emergence, Postemergence, scale 0 to 100 (0 no effect, 100 complete control), read-out: Barnyardgrass plant response rating) | pest or weed control at 500 g/ha ([16]; post-emergence, Postemergence, scale 0 to 100, read-out: Plant response rating, Barnyardgrass) | pest or weed control at 500 g/ha ([16]; pre-emergence, Preemergence, scale 0 to 100 (0 no effect, 100 complete control), read-out: Barnyardgrass plant response rating) | pest or weed control at 125 g/ha ([17]; post-emergence, Postemergence, scale 0 to 100 (0 no effect, 100 complete control), read-out: Surinam Grass plant response rating) | pest or weed control at 500 g/ha ([17]; post-emergence, Postemergence, scale 0 to 100, read-out: Plant response rating, Surinam Grass) | pest or weed control at 500 g/ha ([17]; pre-emergence, Preemergence, scale 0 to 100 (0 no effect, 100 complete control), read-out: Surinam Grass plant response rating)
50%: Corn plant response rating (crop injury, 0 = no effect, 100 = complete kill) at 125 g/ha ([13]; pre-emergence, Preemergence, 125 g ai/ha, scale 0 to 100 (0 no effect, 100 complete control)) | pest or weed control at 125 g/ha ([16]; pre-emergence, Preemergence, scale 0 to 100 (0 no effect, 100 complete control), read-out: Plant response rating, Barnyardgrass)
80%: pest or weed control at 500 g/ha ([1]; 500 g ai/ha, scale 0 to 100, read-out: Plant response rating, Blackgrass) | plant injury at 1000 g/ha [6] | pest or weed control at 500 g/ha ([7]; pre-emergence, Preemergence, scale 0 to 100 (0 no effect, 100 complete control), read-out: Foxtail, Giant plant response rating) | plant injury at 500 g/ha ([11]; pre-emergence, Preemergence, scale 0 to 100 (0 no effect, 100 complete control), read-out: Wheat plant response rating) | plant injury at 500 g/ha ([13]; pre-emergence, Preemergence, 500 g ai/ha, scale 0 to 100 (0 no effect, 100 complete control), read-out: Corn plant response rating)
70%: pest or weed control at 500 g/ha ([2]; 500 g ai/ha, scale 0 to 100, read-out: Plant response rating, Oat, Wild) | pest or weed control at 125 g/ha ([7]; pre-emergence, Preemergence, scale 0 to 100 (0 no effect, 100 complete control), read-out: Plant response rating, Foxtail, Giant) | plant injury at 500 g/ha ([11]; post-emergence, Postemergence, scale 0 to 100, read-out: Plant response rating, Wheat) | plant injury at 125 g/ha ([13]; post-emergence, Postemergence, 125 g ai/ha, scale 0 to 100 (0 no effect, 100 complete control), read-out: Corn plant response rating) | pest or weed control at 125 g/ha ([17]; pre-emergence, Preemergence, scale 0 to 100 (0 no effect, 100 complete control), read-out: Plant response rating, Surinam Grass)
40%: plant injury at 125 g/ha ([11]; post-emergence, Postemergence, scale 0 to 100 (0 no effect, 100 complete control), read-out: Wheat plant response rating) | plant injury at 125 g/ha ([11]; pre-emergence, Preemergence, scale 0 to 100 (0 no effect, 100 complete control), read-out: Plant response rating, Wheat)
100%: pest or weed control at 1000 g/ha [4] | pest or weed control at 125 g/ha ([8]; post-emergence, Postemergence, scale 0 to 100 (0 no effect, 100 complete control), read-out: Pigweed plant response rating) | pest or weed control at 500 g/ha ([8]; post-emergence, Postemergence, scale 0 to 100, read-out: Plant response rating, Pigweed) | pest or weed control at 500 g/ha ([8]; pre-emergence, Preemergence, scale 0 to 100 (0 no effect, 100 complete control), read-out: Pigweed plant response rating) | pest or weed control at 125 g/ha ([9]; post-emergence, Postemergence, scale 0 to 100 (0 no effect, 100 complete control), read-out: Cocklebur plant response rating) | pest or weed control at 500 g/ha ([9]; post-emergence, Postemergence, scale 0 to 100, read-out: Plant response rating, Cocklebur) | pest or weed control at 500 g/ha ([9]; pre-emergence, Preemergence, scale 0 to 100 (0 no effect, 100 complete control), read-out: Cocklebur plant response rating) | pest or weed control at 125 g/ha ([10]; post-emergence, Postemergence, scale 0 to 100 (0 no effect, 100 complete control), read-out: Morningglory plant response rating) | pest or weed control at 500 g/ha ([10]; post-emergence, Postemergence, scale 0 to 100, read-out: Plant response rating, Morningglory) | pest or weed control at 125 g/ha ([10]; pre-emergence, Preemergence, scale 0 to 100 (0 no effect, 100 complete control), read-out: Plant response rating, Morningglory) | pest or weed control at 500 g/ha ([10]; pre-emergence, Preemergence, scale 0 to 100 (0 no effect, 100 complete control), read-out: Morningglory plant response rating) | pest or weed control at 500 g/ha ([12]; pre-emergence, Preemergence, scale 0 to 100 (0 no effect, 100 complete control), read-out: Crabgrass plant response rating) | pest or weed control at 500 g/ha ([14]; post-emergence, Postemergence, scale 0 to 100, read-out: Plant response rating, Lambsquarters) | pest or weed control at 500 g/ha ([14]; pre-emergence, Preemergence, scale 0 to 100 (0 no effect, 100 complete control), read-out: Lambsquarters plant response rating) | pest or weed control at 125 g/ha ([15]; post-emergence, Postemergence, scale 0 to 100 (0 no effect, 100 complete control), read-out: Velvetleaf plant response rating) | pest or weed control at 500 g/ha ([15]; post-emergence, Postemergence, scale 0 to 100, read-out: Plant response rating, Velvetleaf) | pest or weed control at 500 g/ha ([15]; pre-emergence, Preemergence, scale 0 to 100 (0 no effect, 100 complete control), read-out: Velvetleaf plant response rating)
60%: pest or weed control at 125 g/ha ([1]; 125 g ai/ha, scale 0 to 100 (0 no effect, 100 complete control), read-out: Blackgrass plant response rating)
20%: pest or weed control at 125 g/ha ([2]; 125 g ai/ha, scale 0 to 100 (0 no effect, 100 complete control), read-out: Oat, Wild plant response rating)

— patent publication US8802597B2, “Herbicidal pyrimidines” (E I du Pont de Nemours and Company, priority 2003, dated 2014)
